Source: US9681664B2, “Macrocyclic picolinamides as fungicides” (Dow Agrosciences LLC, priority 2012, dated 2017)
Like-named read-outs stand apart in the source and are kept apart here.

Legend:
[1] = tested on: Mycosphaerella graminicola; Anamorph: Septoria tritici; assay: Leaf blotch of wheat (SEPTTR) disease control on wheat seedlings; format: in vivo; conditions: Zymoseptoria tritici; for pest or weed control at 121.5 g/ha: low volume application, 121.5 g/H
Outline: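 Wheat seedlings (Yuma, first leaf emerged) sprayed to run-off with compound in acetone/water with 110 ppm Triton X-100, or track-sprayed as EC with 0.1% Trycol 5941. Septoria tritici spores inoculated before or after treatment. Dew chambers, then 20 °C greenhouse. Percent disease control derived from severity (0–100%) relative to untreated plants.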

[2] = tested on: Puccinia triticina; Synonym: Puccinia recondite f. sp. tritici; assay: Wheat brown rust (PUCCRT) disease control on wheat seedlings; format: in vivo; conditions: Puccinia triticina; for pest or weed control at 121.5 g/ha: low volume application, 121.5 g/H
Outline: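 Acetone solutions diluted in nine volumes of water with 110 ppm Triton X-100 sprayed to run-off on first-leaf Yuma wheat seedlings (track spray: EC with 0.1% Trycol 5941). Puccinia triticina spores inoculated before or after treatment; overnight dark dew at 22° C., 100% RH, then greenhouse at 24° C. for disease development.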

[3] = tested on: Phakopsora pachyrhizi; assay: Asian soybean rust (PHAKPA) disease control; format: in vivo; conditions: topical, high volume
Experimental: Technical grades of materials were dissolved in acetone, which were then mixed with nine volumes of water containing 0.011% Tween 20. The fungicide solutions were applied onto soybean seedlings using an automated booth sprayer to run-off. All sprayed plants were allowed to air dry prior to further handling.
Soybean plants (variety Williams 82) were grown in soil-less Metro mix, with one plant per pot. Two weeks old seedlings were used for testing. Plants were inoculated either 3 days prior to or 1 day after fungicide treatments. Plants were incubated for 24 h in a dark dew room at 22° C. and 100% RH then transferred to a growth room at 23° C. for disease to develop. Disease severity was assessed on the sprayed leaves.

[4] = tested on: Glomerella lagenarium; Anamorph: Colletotrichum lagenarium; assay: Cucumber anthracnose (COLLLA) disease control; format: in vivo; conditions: Colletotrichum orbiculare, 24 h, 1 Day Protectant, high volume, read-out: Disease Control COLLLA 1 DP
Experimental: Technical grades of materials were dissolved in acetone, which were then mixed with nine volumes of water containing 110 ppm Triton X-100. The fungicide solutions were applied onto wheat seedlings using an automated booth sprayer to run-off. All sprayed plants were allowed to air dry prior to further handling. All fungicides were evaluated using the aforementioned method for their activity vs. all target diseases. Wheat leaf blotch and brown rust activity were also evaluated using track spray applications, in which case the fungicides were formulated as EC formulations, containing 0.1% Trycol 5941 in the spray solutions. Cucumber seedlings (variety Bush Pickle) were propagated in soil-less Metro mix, with each pot having one plant, and used in the test when 12 to 14 days old. Test plants were inoculated with an aqueous spore suspension of Colletotrichum lagenarium 24 hr after fungicide treatments. After inoculation the plants were kept in a dew room at 22° C. with 100% relative humidity for 48 hr to permit spores to germinate and infect the leaf. The plants were then transferred to a growth room set at 22° C. for disease to develop. Fungicide formulation, application and disease assessment on the sprayed leaves followed the procedures as described in the Example A.

[5] = 24 h, High volume application, 1 Day Protectant, read-out: SEPTTR 1DP disease control
[6] = 72 h, High volume application, 3 Day Curative, read-out: SEPTTR 3DC disease control
[7] = 24 h, High volume application, 1 Day Protectant, read-out: PUCCRT 1DP disease control
[8] = 72 h, High volume application, 3 Day Curative, read-out: PUCCRT 3DC disease control
[9] = 24 h, 1 Day Protectant, read-out: Disease Control PHAKPA 1DP
[10] = 72 h, 3 Day Curative, read-out: Disease Control PHAKPA 3DC

| Structure (SMILES) | pest or weed control at 100 ppm [1, 5] | pest or weed control at 100 ppm [1, 6] | pest or weed control at 100 ppm [2, 7] | pest or weed control at 100 ppm [2, 8] | pest or weed control at 25 ppm [3, 9] | pest or weed control at 100 ppm [4] | pest or weed control at 25 ppm [3, 10] | melting point | pest or weed control at 100 ppm ([1]; 24 h, Wheat Leaf Blotch, 1 Day Protectant, high volume application, read-out: Disease Control SEPTTR 1 DP 100 ppm) | pest or weed control at 121.5 g/ha ([1]; 24 h, Wheat Leaf Blotch, 1 Day Protectant, read-out: Disease Control SEPTTR 1 DP 121.5 g/H) | pest or weed control at 100 ppm ([1]; 72 h, Wheat Leaf Blotch, 3 Day Curative, high volume application, read-out: Disease Control SEPTTR 3 DC 100 ppm) | pest or weed control at 121.5 g/ha ([1]; 72 h, Wheat Leaf Blotch, 3 Day Curative, read-out: Disease Control SEPTTR 3 DC 121.5 g/H) | pest or weed control at 100 ppm ([2]; 24 h, Wheat Brown Rust, 1 Day Protectant, high volume application, read-out: Disease Control PUCCRT 1 DP 100 ppm) | pest or weed control at 121.5 g/ha ([2]; 24 h, Wheat Brown Rust, 1 Day Protectant, read-out: Disease Control PUCCRT 1 DP 121.5 g/H) | pest or weed control at 100 ppm ([2]; 72 h, Wheat Brown Rust, 3 Day Curative, high volume application, read-out: Disease Control PUCCRT 3 DC 100 ppm) | pest or weed control at 121.5 g/ha ([2]; 72 h, Wheat Brown Rust, 3 Day Curative, read-out: Disease Control PUCCRT 3 DC 121.5 g/H) |
| --- | --- | --- | --- | --- | --- | --- | --- | --- | --- | --- | --- | --- | --- | --- | --- | --- |
| COc1ccnc(C(=O)N[C@H]2CCC[C@H](OC3CCCC3)[C@@H](OC3CCCC3)[C@H](C)OC2=O)c1OCOC(=O)C(C)C [F76] | 80 to 100% | 80 to 100% | 80 to 100% | 80 to 100% | 80 to 100% |  |  |  |  |  |  |  |  |  |  |  |
| COc1ccnc(C(=O)N[C@H]2CCC[C@H](OC3CCCC3)[C@@H](OC3CCCC3)[C@H](C)OC2=O)c1OC(C)=O [F77] | 80 to 100% | 80 to 100% | 80 to 100% | 80 to 100% | 80 to 100% |  |  |  |  |  |  |  |  |  |  |  |
| COc1ccnc(C(=O)N[C@H]2CCC[C@H](OC3CCCC3)[C@@H](Oc3ccccc3)[C@H](C)OC2=O)c1OCOC(C)=O [F78] | 80 to 100% | 80 to 100% | 80 to 100% | 80 to 100% | 80 to 100% | 80 to 100% | 80 to 100% |  |  |  |  |  |  |  |  |  |
| COc1ccnc(C(=O)N[C@H]2CCC[C@H](OC3CCCC3)[C@@H](Oc3ccccc3)[C@H](C)OC2=O)c1OCOC(=O)C(C)C [F79] | 80 to 100% | 80 to 100% | 80 to 100% | 80 to 100% | 80 to 100% |  |  |  |  |  |  |  |  |  |  |  |
| COc1ccnc(C(=O)N[C@H]2CCC[C@H](OC3CCCC3)[C@@H](Oc3ccccc3)[C@H](C)OC2=O)c1OC(C)=O [F81] | 80 to 100% | 80 to 100% | 80 to 100% | 80 to 100% | 80 to 100% |  |  |  |  |  |  |  |  |  |  |  |
| CCCO[C@H]1[C@H](C)OC(=O)[C@@H](NC(=O)c2nccc(OC)c2OCOC(C)=O)CCC[C@@H]1Oc1ccccc1 [F95] | 80 to 100% | 80 to 100% | 80 to 100% | 80 to 100% | 80 to 100% |  | 80 to 100% |  |  |  |  |  |  |  |  |  |
| COc1ccnc(C(=O)N[C@H]2CCC[C@H](OC3CCCC3)[C@@H](OCC(C)C)[C@H](C)OC2=O)c1O [F119] | 80 to 100% | 80 to 100% | 80 to 100% | 80 to 100% |  |  |  | 99 to 100 °C |  |  |  |  |  |  |  |  |
| COc1ccnc(C(=O)N[C@H]2CCC[C@H](OC3CCCC3)[C@@H](OCCCC(F)(F)F)[C@H](C)OC2=O)c1O [F120] | 80 to 100% | 80 to 100% | 80 to 100% | 80 to 100% |  |  |  | 43 to 48 °C |  |  |  |  |  |  |  |  |
| COc1ccnc(C(=O)N[C@H]2CCC[C@H](OCCCc3ccccc3)[C@@H](Oc3ccccc3)[C@H](C)OC2=O)c1OCOC(C)=O [F133] | 80 to 100% | 80 to 100% | 80 to 100% | 80 to 100% | 80 to 100% |  | 0 to 80% |  |  |  |  |  |  |  |  |  |
| CCCO[C@H]1[C@H](C)OC(=O)[C@@H](NC(=O)c2nccc(OC)c2O)CCC[C@@H]1OCC(C)C [F212] | 0 to 80% | 0 to 80% | 80 to 100% | 80 to 100% |  |  |  | 109 to 111 °C |  |  |  |  |  |  |  |  |
| COc1ccnc(C(=O)N[C@H]2CCC[C@H](OCC(C)C)[C@@H](OC(=O)C3CC3)[C@H](C)OC2=O)c1O [F213] | 0 to 80% | 0 to 80% | 80 to 100% | 80 to 100% |  |  |  | 63 to 66 °C |  |  |  |  |  |  |  |  |
| COc1ccnc(C(=O)N[C@H]2CCC[C@H](OC3CCCC3)[C@@H](OC3CCCC3)[C@H](C)OC2=O)c1OCOC(C)=O [F217] | 80 to 100% | 80 to 100% | 80 to 100% | 80 to 100% | 80 to 100% | 80 to 100% |  |  |  |  |  |  |  |  |  |  |
| COCCC(=O)Oc1c(OC)ccnc1C(=O)N[C@H]1CCC[C@H](Oc2ccccc2)[C@@H](OC(=O)C2CC2)[C@H](C)OC1=O [F243] |  |  |  |  | 80 to 100% |  | 0 to 80% |  | 80 to 100% | 0 to 80% | 80 to 100% | 80 to 100% | 80 to 100% | 80 to 100% | 80 to 100% | 80 to 100% |
